Assay results as given in US5948786A, “Piperidinylpyrimidine derivatives” (Sumitomo Pharmaceuticals Company, Limited, priority 1996, dated 1999).

The compounds below were run on TNF α production from mouse macrophages (assay: Inhibitory activity of compound on TNF α Production from mouse macrophages (LPS-induced PEC's)). Settings: Macrophage, LPS 10 μg/ml, 18 hours.
Type: cell-based
Procedure: BALB/c mice (female, 5-7 weeks old, Charles River Japan, Tokyo, Japan) were injected i.p. with 1 ml of 2.4% thioglycollate broth. After 4 days, the mice were sacrificed. Peritoneal exudated cells (PEC's) were collected from the peritoneal cavity by washing with minimum essential medium (MEM, Handai biseibutubyou kenkyukai, Osaka, Japan) containing 5 U/ml heparin, 1% fetal bovine serum (FBS, Filtron, Victoria, Australia) and antibiotics. The cells were washed two times with MEM, suspended with MEM containing 10% FBS (complete MEM, cMEM) and seeded into 96-well culture plates (Costar, Cambridge, Mass., USA) at 2×10^5 cells/well. The cells were incubated for 1 hour at 37° C. in a humidified 5% CO2 incubator and washed two times to remove non-adherent cells.
TNF α was induced by 10 μg/ml of LPS (E. coli O111B4, DIFCO, Detroit, Mich., USA) the cells were cultured for 18 hours at 37° C. A compound of the present invention was dissolved in DMSO and added to the culture simultaneously with LPS. The final DMSO concentration was below 0.1%. The TNF α concentration in supernatant and recombinant mouse TNF α standard (rm-TNF α, Genzyme, Mass., USA) were incubated overnight at 4° C. in a 96-well plate coated with anti-mouse TNF α monoclonal antibody (PharMingen, San Diego, Calif., USA) that previously had been blocked with 10% FBS. Each well of the plate first was incubated at room temperature with biotinylated anti-mouse TNF α polyclonal antibodies (PharMingen) for 45 minutes, then with peroxidase-conjugated streptavidin (Kirkegaard & Perry Laboratories Inc., Gaitherburg, Md., USA) for 30 minutes. After each incubation, the plate was washed 4 to 8 times with PBS containing 0.2% Tween 20. TMB (Kirkegaard & Perry Laboratories Inc.) was the peroxidase substrate used and, the absorbance of each well was quantified at 450 nm by a microplatereader (Molecular Devices Corp., CA, USA). TNF α levels in the supernatant were quantified with rm-TNF α as the standard.

Compared with `COc1ccc(-c2cc(C3CCN(C(=O)c4ccccc4)CC3)nc(N)n2)cc1` [Example 5, 2-Amino-4-(1-benzoyl-4-piperidinyl)-6-(4-methoxyphenyl)pyrimidine], `Nc1nc(-c2ccc(Cl)cc2)cc(C2CCN(C(=O)c3ccccc3)CC2)n1` [Example 6, 2-Amino-4-(1-benzoyl-4-piperidinyl)-6-(4-chlorophenyl)pyrimidine] is higher in inhibition at 30 µM: 57% for the first, 78% for the second.

First: Nc1nc(Cc2ccc(Cl)cc2)cc(C2CCN(C(=O)c3ccccc3)CC2)n1 [Example 7, 2-Amino-4-(1-benzoyl-4-piperidinyl)-6-(4-chlorophenylmethyl)pyrimidine]
Second: Nc1nc(C2CCN(C(=O)c3ccc(Cl)cc3)CC2)c2ccccc2n1 [Example 37]
The inhibition at 30 µM of the first is higher: 58% for the first, 4% for the second.

Going from `CCC(=O)N1CCC(c2nc(N)nc3ccccc23)CC1` [Example 16] to `CCCC(=O)N1CCC(c2nc(N)nc3ccccc23)CC1` [Example 17], the inhibition at 30 µM rises from 4% to 8%.

Compared with `CCCCCC(=O)N1CCC(c2nc(N)nc3ccccc23)CC1` [Example 19], `CCCCCCC(=O)N1CCC(c2nc(N)nc3ccccc23)CC1` [Example 20] is higher in inhibition at 30 µM: 10% for the first, 63% for the second.

First: CCCCCCCC(=O)N1CCC(c2nc(N)nc3ccccc23)CC1 [Example 21]
Second: CCCCCCCCC(=O)N1CCC(c2nc(N)nc3ccccc23)CC1 [Example 22]
The inhibition at 30 µM of the first is higher: 74% for the first, 64% for the second.

First: CCCCCCCCCC(=O)N1CCC(c2nc(N)nc3ccccc23)CC1 [Example 23]
Second: CCCCCCCCCCC(=O)N1CCC(c2nc(N)nc3ccccc23)CC1 [Example 24]
The inhibition at 30 µM of the first is lower: 67% for the first, 70% for the second.

Going from `CC(C)(C)C(=O)N1CCC(c2nc(N)nc3ccccc23)CC1` [Example 26] to `Nc1nc(C2CCN(C(=O)c3cccnc3)CC2)c2ccccc2n1` [Example 50], the inhibition at 30 µM falls from 19% to 18%.

Compared with `CC(C)(C)OC(=O)NCCCCCCC(=O)N1CCC(c2nc(N)nc3ccccc23)CC1` [Example 27, 2-amino-4-[1-(7-t-butoxycarbonylaminoheptanoyl)-4-piperidinyl]quinazoline], `CC(C)(C)OC(=O)NCCCCCCCC(=O)N1CCC(c2nc(N)nc3ccccc23)CC1` [Example 28, 2-amino-4-[1-(8-t-butoxycarbonylaminooctanoyl)-4-piperidinyl]quinazoline] is higher in inhibition at 30 µM: 95% for the first, 100% for the second.

Compared with `CC(C)(C)OC(=O)NCCCCCCCCCCC(=O)N1CCC(c2nc(N)nc3ccccc23)CC1` [Example 29, 2-amino-4-[1-(11-t-butoxycarbonylaminoundecanoyl)-4-piperidinyl]quinazoline], `Nc1nc(C2CCN(C(=O)CCCCCCCCCO)CC2)c2ccccc2n1` [Example 30] is lower in inhibition at 30 µM: 100% for the first, 64% for the second.

Compared with `COc1ccccc1C(=O)N1CCC(c2nc(N)nc3ccccc23)CC1` [Example 32], `Nc1nc(C2CCN(C(=O)c3ccccc3Cl)CC2)c2ccccc2n1` [Example 35] is higher in inhibition at 30 µM: 30% for the first, 72% for the second.

Compared with `COc1cccc(C(=O)N2CCC(c3nc(N)nc4ccccc34)CC2)c1` [Example 33], `Nc1nc(C2CCN(C(=O)c3cccc(Cl)c3)CC2)c2ccccc2n1` [Example 36] is higher in inhibition at 30 µM: 18% for the first, 42% for the second.

Going from `Nc1nc(C2CCN(C(=O)c3ccccc3[N+](=O)[O-])CC2)c2ccccc2n1` [Example 38] to `Nc1nc(C2CCN(C(=O)c3cccc([N+](=O)[O-])c3)CC2)c2ccccc2n1` [Example 39], the inhibition at 30 µM falls from 30% to 12%.

Compared with `Nc1nc(C2CCN(C(=O)c3ccc([N+](=O)[O-])cc3)CC2)c2ccccc2n1` [Example 40], `Nc1nc(C2CCN(C(=O)Cc3ccc([N+](=O)[O-])cc3)CC2)c2ccccc2n1` [Example 88] is higher in inhibition at 30 µM: 15% for the first, 26% for the second.

Compared with `Nc1nc(C2CCN(C(=O)c3ccncc3)CC2)c2ccccc2n1` [Example 51], `Nc1nc(C2CCN(C(=O)c3ccc(Cl)c(Cl)c3)CC2)c2ccccc2n1` [Example 62] is higher in inhibition at 30 µM: 28% for the first, 55% for the second.

Compared with `COc1cccc(C(=O)N2CCC(c3nc(N)nc4ccccc34)CC2)c1OC` [Example 52], `COc1ccc(C(=O)N2CCC(c3nc(N)nc4ccccc34)CC2)c(OC)c1OC` [Example 68] is lower in inhibition at 30 µM: 20% for the first, 8% for the second.

First: COc1ccc(C(=O)N2CCC(c3nc(N)nc4ccccc34)CC2)c(OC)c1 [Example 53]
Second: COc1ccc(C(=O)N2CCC(c3nc(N)nc4ccccc34)CC2)cc1OC [Example 56]
The inhibition at 30 µM of the first is higher: 54% for the first, -28% for the second.

First: Nc1nc(C2CCN(C(=O)c3ccc(Cl)cc3Cl)CC2)c2ccccc2n1 [Example 59]
Second: Nc1nc(C2CCN(C(=O)c3cc(Cl)ccc3Cl)CC2)c2ccccc2n1 [Example 60]
The inhibition at 30 µM of the first is lower: 56% for the first, 73% for the second.

Going from `Nc1nc(C2CCN(C(=O)c3cccc4ccccc34)CC2)c2ccccc2n1` [Example 66] to `Nc1nc(C2CCN(C(=O)Cc3ccccc3Cl)CC2)c2ccccc2n1` [Example 80], the inhibition at 30 µM falls from 32% to 28%.

Going from `COc1ccc(OC)c(C(=O)N2CCC(c3nc(N)nc4ccccc34)CC2)c1OC` [Example 69] to `COc1cc(C(=O)N2CCC(c3nc(N)nc4ccccc34)CC2)cc(OC)c1OC` [Example 72], the inhibition at 30 µM rises from -95% to 32%.

Compared with `Nc1nc(C2CCN(C(=O)c3cc(Cl)cc(Cl)c3Cl)CC2)c2ccccc2n1` [Example 73], `Nc1nc(C2CCN(C(=O)c3c(Cl)cc(Cl)cc3Cl)CC2)c2ccccc2n1` [Example 75] is higher in inhibition at 30 µM: 23% for the first, 92% for the second.

First: Nc1nc(C2CCN(C(=O)c3c(Cl)ccc(Cl)c3Cl)CC2)c2ccccc2n1 [Example 74]
Second: Nc1nc(C2CCN(C(=O)Cc3c(Cl)ccc(Cl)c3Cl)CC2)c2ccccc2n1 [Example 98]
The inhibition at 30 µM of the first is higher: 88% for the first, 43% for the second.

First: COc1ccccc1CC(=O)N1CCC(c2nc(N)nc3ccccc23)CC1 [Example 77]
Second: COc1cccc(CC(=O)N2CCC(c3nc(N)nc4ccccc34)CC2)c1 [Example 78]
The inhibition at 30 µM of the first is higher: 27% for the first, 10% for the second.

Going from `COc1ccc(CC(=O)N2CCC(c3nc(N)nc4ccccc34)CC2)cc1` [Example 79] to `Nc1nc(C2CCN(C(=O)Cc3ccc(Cl)cc3)CC2)c2ccccc2n1` [Example 82], the inhibition at 30 µM rises from -3% to 59%.

Compared with `Nc1nc(C2CCN(C(=O)Cc3cccc(Cl)c3)CC2)c2ccccc2n1` [Example 81], `Nc1nc(C2CCN(C(=O)Cc3ccc(Cl)c(Cl)c3)CC2)c2ccccc2n1` [Example 96] is higher in inhibition at 30 µM: 56% for the first, 100% for the second.

Going from `COc1ccc(CC(=O)N2CCC(c3nc(N)nc4ccccc34)CC2)cc1OC` [Example 92] to `COc1cc(CC(=O)N2CCC(c3nc(N)nc4ccccc34)CC2)cc(OC)c1` [Example 93], the inhibition at 30 µM falls from 68% to 60%.

Going from `Nc1nc(C2CCN(C(=O)Cc3ccc(Cl)cc3Cl)CC2)c2ccccc2n1` [Example 94] to `Nc1nc(C2CCN(C(=O)Cc3ccc(Cl)cc3)CC2)c2cc(Cl)ccc2n1` [Example 132], the inhibition at 30 µM falls from 78% to 55%.

Compared with `Nc1nc(C2CCN(C(=O)Cc3ccc([N+](=O)[O-])cc3[N+](=O)[O-])CC2)c2ccccc2n1` [Example 97], `Nc1nc(C2CCN(C(=O)Cc3ccc([N+](=O)[O-])cc3)CC2)c2cc(Cl)ccc2n1` [Example 133] is lower in inhibition at 30 µM: 45% for the first, 35% for the second.

First: CCCCCCC(=O)N1CCC(c2nc(N)nc3ccc(OC)cc23)CC1 [Example 103]
Second: CCCCCCCC(=O)N1CCC(c2nc(N)nc3ccc(OC)cc23)CC1 [Example 104]
The inhibition at 30 µM of the first is lower: 44% for the first, 50% for the second.

`CCCCCCCCC(=O)N1CCC(c2nc(N)nc3ccc(OC)cc23)CC1` [Example 105] and `CCCCCCCCCC(=O)N1CCC(c2nc(N)nc3ccc(OC)cc23)CC1` [Example 106] are the same in inhibition at 30 µM: 54% for the first, 54% for the second.

First: COc1ccc(C(=O)N2CCC(c3nc(N)nc4ccc(OC)cc34)CC2)cc1 [Example 110]
Second: COc1ccc2nc(N)nc(C3CCN(C(=O)c4ccc(Cl)cc4)CC3)c2c1 [Example 113]
The inhibition at 30 µM of the first is higher: 21% for the first, -1% for the second.

First: COc1ccc2nc(N)nc(C3CCN(C(=O)c4ccc([N+](=O)[O-])cc4)CC3)c2c1 [Example 116]
Second: COc1ccc2nc(N)nc(C3CCN(C(=O)Cc4ccc([N+](=O)[O-])cc4)CC3)c2c1 [Example 126]
The inhibition at 30 µM of the first is lower: 23% for the first, 43% for the second.

Going from `COc1ccc(CC(=O)N2CCC(c3nc(N)nc4ccc(OC)cc34)CC2)cc1` [Example 120] to `COc1ccc2nc(N)nc(C3CCN(C(=O)Cc4ccc(Cl)cc4)CC3)c2c1` [Example 123], the inhibition at 30 µM falls from 31% to 28%.

Compared with `CCCCCCCC(=O)N1CCC(c2nc(N)nc3ccc(Cl)cc23)CC1` [Example 127], `CCCCCCCCC(=O)N1CCC(c2nc(N)nc3ccc(Cl)cc23)CC1` [Example 128] is higher in inhibition at 30 µM: 48% for the first, 79% for the second.

Going from `CCCCCCCCCC(=O)N1CCC(c2nc(N)nc3ccc(Cl)cc23)CC1` [Example 129] to `COc1ccc(CC(=O)N2CCC(c3nc(N)nc4ccc(Cl)cc34)CC2)cc1` [Example 131], the inhibition at 30 µM falls from 48% to 23%.
